{"source": "patent US4756904A", "about": "(Oak Ridge Associated Universities, Inc., priority 1986, dated 1988)", "system": "myocardium", "procedure": "Sixteen closed-chest studies were performed in 6 healthy, adult mongrel dogs of both sexes weighing 15 to 30 kg. The dogs were maintained on a standard laboratory diet which was discontinued 24 hours prior to study. The animals were anesthetized using a combination of xylazine and sodium pentobarbital. Transmission cross-sectional scans of the chest area were performed on each dog with an ECAT II scanner using a ^68 Ge ring source with medium resolution filters and standard shadow shields. Measured attenuation coefficients were used for reconstructing the emission tomographs. […] Serial scans of the heart from base to apex in 10-15 mm steps were made starting 3-5 minutes after injection. After each series was completed, the ECAT II bed was returned to the original position and the dogs were rescanned. This procedure was repeated over a 2 to 4 hour period. Each set of scans required approximately 1 hour for 6 slices, so that 2 to 4 sets of images were obtained in each study. Sequential images were also obtained through a 20-mm section of the heart over a 2-hour period. Additional images from 1 dog were obtained using the new high-resolution ECAT III scanner. […] The animals were injected through a cannula or catheter in the leg and heparanized venous blood samples were removed from the opposite side. Known aliquots of whole blood, plasma, and erythrocytes were assayed in a well-type scintillation counter to determine the ^64 Cu levels present in the different components."}
{"substance": "copper-64 citrate [^64 Cu citrate]", "values": [{"measurement": "image quality with the PET", "setting": "^64 Cu citrate, PET", "result": "unexpectedly distinct image"}, {"measurement": "useful images of the myocardium", "setting": "dog", "result": "yields useful images of the myocardium"}, {"measurement": "uptake by the myocardium", "setting": "dog, intravenous, tomographic images", "result": "rapid and uniform uptake of the compound throughout the myocardium"}, {"measurement": "uptake by myocardial tissue over time", "setting": "dog, over the time periods studied", "result": "occurs quite rapidly and remains constant over the time periods studied"}, {"measurement": "visibility of the left ventricle in the emission scan", "setting": "dog, transverse section", "result": "very distinctly"}, {"measurement": "visibility of the right ventricle in the emission scan", "setting": "dog, transverse section", "result": "less clearly seen"}]}
